pIC50: −log10 of the molar value. Like-named read-outs stand apart in the source and are kept apart here.
Columns and labels:
[1] = Pharmacokinetic experiment in mice; type: in vivo; conditions: male, C57, po; mouse plasma, i.g. (10 mg/kg)
Method: (§1) 1. Experimental animals: Male C57 mice, 22-25 g, 6 mice/compound. Purchased from Chengdu Ddossy Experimental Animals Co., Ltd.
(§2) 2. Experimental design: On the day of the experiment, 12 C57 mice were randomly grouped according to their body weight. The animals were fasted with water available for 12 to 14 h one day before the administration and were fed 4 h after the administration.
Before and after the administration, 0.06 mL of blood was taken from the orbit of the animals under isoflurane anesthesia and placed in an EDTAK2 centrifuge tube. The blood was centrifuged at 5000 rpm and 4° C. for 10 min to collect the plasma. The blood collection time points for the intravenous group and intragastric administration group were: 0 m, 5 m, 15 min, 30 min, 1 h, 2 h, 4 h, 7 h and 24 h. Before analysis and detection, all samples were stored at −80° C., and a quantitative analysis of samples was performed using LC-MS/MS.

[2] = test system: rabbit skeletal muscle myosin; test: Inhibition of hydrolysis of ATP by rabbit skeletal muscle myosin; type: biochemical
In short: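 Actin-activated ATPase: F-actin plus rabbit skeletal myosin II with compound in Tris-HCl pH 7.5/KCl/EGTA/MgCl2, started with ATP (3 mM working stock) and run 60 min at 37 °C. Released Pi measured by CytoPhos absorbance at 650 nm against a phosphate standard curve; IC50 fitted from inhibition relative to uninhibited myosin.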

cardiac myosin SII = target: T1, cardiac myosin SII (Bos taurus, UniProt Q9BE39); test: Inhibition of hydrolysis of ATP by cardiac myosin SII; type: biochemical; conditions: 100 μM compound
T1 construct: purchased Cytoskeleton #MYO3-A
Method: The purpose of this test was to evaluate the ability of compounds to inhibit the hydrolysis of ATP by cardiac myosin SII. The determination method was as follows: • 1. Solution formulation: • Preformed F-actin filaments (#AKF99-B, Cytoskeleton) were diluted to 1 mg/mL with Reaction buffer (15 mM Tris-HCL. PH7.5+10 mM KCl+0.1 mM EGTA+2 mM MgCl2); • Cardiac Muscle myosin (#MYO3-A, Cytoskeleton) was diluted to 1 mg/mL with Resuspension buffer (15 mM Tris-HCL, PH7.5+0.2M KCl+1 mM MgCl2); • ATP (#BSA04-001, Cytoskeleton) was diluted to 3 mM working solution with 15 mM Tris-HCL (PH=7.5); • 2. Formulation of working solution of compounds: the final compound concentration was 100 μM • 3. Experimental steps: • adding 10 μL of compound working solution+12 μL of Preformed F-actin filaments+3 μL of Cardiac Muscle myosin to the compound wells; • adding 10 μL of reaction buffer containing DMSO+12 μL Preformed F-actin filaments +3 μL Cardiac Muscle myosin to positive control wells; • adding 10 μL of reaction buffer containing DMSO+12 μL Preformed F-actin filaments +3 μL Resuspension buffer to negative control wells; • adding 5 μL of 3 mM ATP working solution to all test wells to start the reaction, gently mixing and incubating at 37° C. for 2 h; • after the reaction was completed, taking 6 μL of reaction liquid, adding 24 μL of reaction buffer for 5-fold dilution, then detecting the content of the product Pi with a phosphate kit (#BK054, Cytoskeleton); • adding a sample to Pi standard wells according to the instructions; • adding 70 μL of CytoPhos Reagent (#BK054, Cytoskeleton) to each well and incubating at room temperature for 10 min before detection. • 4. Detection: • the OD value of each well was detected at 650 nm. The standard curve was fitted according to Pi standard concentration and OD value, and the Pi concentration of each test well was obtained. Inhibition (%)=(positive control well−test well)/positive control well*100%.

smooth muscle myosin S1 = target: T2, smooth muscle myosin S1 (Gallus gallus, UniProt P10587); test: Inhibition of hydrolysis of ATP by smooth muscle myosin S1 fragments; type: biochemical; conditions: 100 μM compound
T2 construct: purchased Cytoskeleton #CS-MYS05
Method: The purpose of this test was to evaluate the ability of compounds to inhibit the hydrolysis of ATP by smooth muscle myosin Si fragments. The determination method was as follows: • 1. Solution formulation • F-actin polymer: Cardiac Actin powder (#CS-AD99, Cytoskeleton) was dissolved in a buffer (5 mM Pipes-KOH solution, PH=7.0, containing 100 μM ATP and 500 μM DTT) to form a 2 mg/mL solution and the solution was left at room temperature for 30 min; then 2 mM MgCl2 and 2 mM EGTA were added and the obtained system was left at room temperature for 40 min; • Smooth muscle SI fragment (#CS-MYS05, Cytoskeleton) was diluted with a pre-cooled PM12 buffer containing 1 mM DTT (12 mM Pipes-KOH solution, PH=7.0, containing 2 mM MgCl2) to form a 0.7 mg/mL solution; • ATP (#BSA04-001, Cytoskeleton) was diluted to 5 mM working solution with 15 mM Tris-HCL (PH=7.5); • 2. […] Experimental steps: • adding 10 μL of compound working solution+6 μL of F-actin polymer+4 μL of Smooth muscle Si fragment solution to the compound wells; • adding 10 μL of PM12 buffer containing DMSO+6 μL of F-actin polymer+4 μL of Smooth muscle S1 fragment solution to positive control wells; • adding 10 μL of PM12 buffer containing DMSO+6 μL of F-actin polymer+4 μL of PM12 buffer to negative control wells; • adding […] of 5 mM ATP working solution to all test wells to start the reaction, gently mixing and incubating at 37° C. for 20 min; • after the reaction was completed, taking 6 μLL of reaction liquid, adding 24 μL of PM12 buffer for 5-fold dilution, then detecting the content of the product Pi with a phosphate kit (#BK054, Cytoskeleton); • adding a standard according to the instructions, adding 70 μL of CytoPhos Reagent (#BK054, Cytoskeleton) to all wells and incubating at room temperature for 10 min before detection. • 4. Detection: • the OD value of each well was detected at 650 nm. The standard curve was fitted according to Pi standard concentration and OD value, and the Pi concentration of each test well was obtained. Inhibition (%)=(positive control well−test well)/positive control well*100%.

[3] = Pharmacokinetic experiment in mouse muscle tissue (tibialis anterior / plasma); type: in vivo, C57 mice; conditions: male, C57, tibialis anterior muscle / plasma, oral, intragastric 10 mg/kg, read-out: Ratio = Tibialis anterior Conc./Plasma Conc.
Method: as §1
as §2, with “experiment,” for “experiment, 12”, “administration. Administration was performed as per Table 10.1.” for “administration.”

CYP1A2 = target: T3, CYP1A2 (Homo sapiens, UniProt P05177); test: CYP450 enzyme inhibition, human liver microsomes, CYP1A2; type: in vitro ADME
T3 construct: incubated with human liver microsomes and test compounds of different concentrations; from tissue; host or cells: human liver microsomes
T3 sequence (P05177 1-516): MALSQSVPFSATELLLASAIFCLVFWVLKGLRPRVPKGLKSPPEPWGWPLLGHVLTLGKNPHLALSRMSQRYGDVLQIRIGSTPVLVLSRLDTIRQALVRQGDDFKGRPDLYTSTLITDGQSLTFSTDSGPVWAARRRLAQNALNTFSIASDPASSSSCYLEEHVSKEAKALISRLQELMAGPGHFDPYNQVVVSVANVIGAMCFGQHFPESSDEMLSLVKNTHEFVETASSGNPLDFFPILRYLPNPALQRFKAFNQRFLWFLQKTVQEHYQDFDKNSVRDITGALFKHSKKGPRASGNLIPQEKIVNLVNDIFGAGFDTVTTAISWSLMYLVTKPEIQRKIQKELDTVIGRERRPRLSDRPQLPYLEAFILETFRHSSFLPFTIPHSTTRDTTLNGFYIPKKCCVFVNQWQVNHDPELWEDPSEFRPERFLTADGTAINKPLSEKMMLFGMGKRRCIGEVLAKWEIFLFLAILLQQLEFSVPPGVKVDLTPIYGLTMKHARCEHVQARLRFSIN
Method: (§3) The purpose of this study was to evaluate the effect of the test compound on the activity of five isoenzymes (CYP1A2, CYP2C9, CYP2C19, CYP2D6 and CYP3A4) of human liver microsomal cytochrome P450 (CYP) by using an in vitro testing system. The specific probe substrates of CYP450 isoenzymes were incubated with human liver microsomes and test compounds of different concentrations, and reduced nicotinamide adenine dinucleotide phosphate (NADPH) was added to initiate the reaction. After the completion of the reaction, the sample was treated and liquid chromatography-tandem mass spectrometry (LC-MS/MS) was used to quantitatively detect metabolites produced by specific substrates, changes in CYP enzyme activity were determined, and IC50 value was calculated to evaluate the inhibitory potential of the test compound on each CYP enzyme subtype.

CYP3A4 = target: T4, CYP3A4 (Homo sapiens, UniProt P08684); test: CYP450 enzyme inhibition, human liver microsomes, CYP3A4; type: in vitro ADME
T4 construct: incubated with human liver microsomes and test compounds of different concentrations; from tissue; host or cells: human liver microsomes
Method: as §3

CYP2C9 = target: T5, CYP2C9 (Homo sapiens, UniProt P11712); test: CYP450 enzyme inhibition, human liver microsomes, CYP2C9; type: in vitro ADME
T5 construct: incubated with human liver microsomes and test compounds of different concentrations; from tissue; host or cells: human liver microsomes
Method: as §3

CYP2C19 = target: T6, CYP2C19 (Homo sapiens, UniProt P33261); test: CYP450 enzyme inhibition, human liver microsomes, CYP2C19; type: in vitro ADME
T6 construct: incubated with human liver microsomes and test compounds of different concentrations; from tissue; host or cells: human liver microsomes
Method: as §3

CYP2D6 = target: T7, CYP2D6 (Homo sapiens, UniProt P10635); test: CYP450 enzyme inhibition, human liver microsomes, CYP2D6; type: in vitro ADME
T7 construct: incubated with human liver microsomes and test compounds of different concentrations; from tissue; host or cells: human liver microsomes
Method: as §3

[4] = inhibition of hydrolysis of ATP, class symbols, read-out: Rabbit skeletal muscle myosin (IC50)
[5] = read-out: IC50 for inhibition of hydrolysis of ATP by rabbit skeletal muscle myosin

T6 sequence (P33261 whole entry): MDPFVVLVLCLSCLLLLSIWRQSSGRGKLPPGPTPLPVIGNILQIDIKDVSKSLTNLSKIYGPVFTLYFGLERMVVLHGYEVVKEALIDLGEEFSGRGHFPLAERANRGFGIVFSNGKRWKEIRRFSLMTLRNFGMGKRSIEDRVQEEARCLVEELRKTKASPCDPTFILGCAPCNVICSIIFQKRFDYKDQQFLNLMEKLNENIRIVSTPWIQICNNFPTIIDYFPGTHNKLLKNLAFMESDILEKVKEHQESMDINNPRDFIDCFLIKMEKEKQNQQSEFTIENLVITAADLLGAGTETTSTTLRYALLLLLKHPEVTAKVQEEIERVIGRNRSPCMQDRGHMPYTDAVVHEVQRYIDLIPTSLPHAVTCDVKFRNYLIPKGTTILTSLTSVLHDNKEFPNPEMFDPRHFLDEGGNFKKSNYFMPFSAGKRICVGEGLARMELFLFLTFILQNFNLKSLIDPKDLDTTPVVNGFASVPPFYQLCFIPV
T4 sequence (P08684 whole entry): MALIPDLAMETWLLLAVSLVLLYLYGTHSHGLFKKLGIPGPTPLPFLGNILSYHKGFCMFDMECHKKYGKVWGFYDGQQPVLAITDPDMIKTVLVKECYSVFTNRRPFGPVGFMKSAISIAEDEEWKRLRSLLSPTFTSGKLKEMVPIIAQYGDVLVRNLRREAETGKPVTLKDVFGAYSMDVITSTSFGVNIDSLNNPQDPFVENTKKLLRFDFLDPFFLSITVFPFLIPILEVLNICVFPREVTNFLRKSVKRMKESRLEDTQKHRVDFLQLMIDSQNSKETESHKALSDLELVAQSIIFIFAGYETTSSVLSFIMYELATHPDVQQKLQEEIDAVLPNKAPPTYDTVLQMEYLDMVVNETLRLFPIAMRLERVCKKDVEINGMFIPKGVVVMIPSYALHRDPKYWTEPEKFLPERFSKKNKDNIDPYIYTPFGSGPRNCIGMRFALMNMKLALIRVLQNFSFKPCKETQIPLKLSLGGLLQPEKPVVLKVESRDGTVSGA
T2 sequence (P10587 84-789 limits assumed): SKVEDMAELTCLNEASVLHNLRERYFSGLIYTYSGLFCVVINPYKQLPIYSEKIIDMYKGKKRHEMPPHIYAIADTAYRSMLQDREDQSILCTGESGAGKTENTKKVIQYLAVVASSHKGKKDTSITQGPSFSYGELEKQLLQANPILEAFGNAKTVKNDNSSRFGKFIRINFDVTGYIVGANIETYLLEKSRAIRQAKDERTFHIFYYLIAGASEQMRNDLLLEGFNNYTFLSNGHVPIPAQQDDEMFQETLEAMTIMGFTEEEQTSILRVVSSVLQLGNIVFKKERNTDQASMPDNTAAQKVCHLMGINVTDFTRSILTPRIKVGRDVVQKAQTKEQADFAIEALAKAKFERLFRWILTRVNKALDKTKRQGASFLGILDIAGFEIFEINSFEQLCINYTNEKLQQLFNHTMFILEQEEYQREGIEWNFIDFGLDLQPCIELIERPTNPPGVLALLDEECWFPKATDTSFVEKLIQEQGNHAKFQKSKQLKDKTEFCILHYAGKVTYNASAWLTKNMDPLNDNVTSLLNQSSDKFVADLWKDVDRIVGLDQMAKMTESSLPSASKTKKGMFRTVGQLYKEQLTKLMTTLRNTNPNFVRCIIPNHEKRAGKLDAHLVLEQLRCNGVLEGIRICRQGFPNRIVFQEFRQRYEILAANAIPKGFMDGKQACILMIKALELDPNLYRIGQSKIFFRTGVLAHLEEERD
T2 sequence (P02607 whole entry partner, the tested form may be a part): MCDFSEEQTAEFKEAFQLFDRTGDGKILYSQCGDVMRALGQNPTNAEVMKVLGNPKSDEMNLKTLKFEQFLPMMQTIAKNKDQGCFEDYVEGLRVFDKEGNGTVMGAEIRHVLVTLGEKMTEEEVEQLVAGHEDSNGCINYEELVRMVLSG
T5 sequence (P11712 whole entry): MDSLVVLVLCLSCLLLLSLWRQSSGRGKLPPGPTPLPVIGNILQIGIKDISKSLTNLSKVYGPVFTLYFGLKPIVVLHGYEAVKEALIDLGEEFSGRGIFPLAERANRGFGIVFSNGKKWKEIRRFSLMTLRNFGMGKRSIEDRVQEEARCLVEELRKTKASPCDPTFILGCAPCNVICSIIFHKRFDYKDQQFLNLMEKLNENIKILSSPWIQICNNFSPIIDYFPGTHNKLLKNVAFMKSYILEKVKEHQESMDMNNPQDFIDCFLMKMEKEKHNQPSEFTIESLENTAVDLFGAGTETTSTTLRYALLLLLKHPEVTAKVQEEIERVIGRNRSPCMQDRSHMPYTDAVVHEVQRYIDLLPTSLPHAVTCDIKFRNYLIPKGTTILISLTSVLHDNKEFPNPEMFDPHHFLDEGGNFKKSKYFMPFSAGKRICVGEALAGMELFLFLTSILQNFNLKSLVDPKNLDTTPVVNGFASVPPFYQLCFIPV
T1 sequence (Q9BE39 whole entry): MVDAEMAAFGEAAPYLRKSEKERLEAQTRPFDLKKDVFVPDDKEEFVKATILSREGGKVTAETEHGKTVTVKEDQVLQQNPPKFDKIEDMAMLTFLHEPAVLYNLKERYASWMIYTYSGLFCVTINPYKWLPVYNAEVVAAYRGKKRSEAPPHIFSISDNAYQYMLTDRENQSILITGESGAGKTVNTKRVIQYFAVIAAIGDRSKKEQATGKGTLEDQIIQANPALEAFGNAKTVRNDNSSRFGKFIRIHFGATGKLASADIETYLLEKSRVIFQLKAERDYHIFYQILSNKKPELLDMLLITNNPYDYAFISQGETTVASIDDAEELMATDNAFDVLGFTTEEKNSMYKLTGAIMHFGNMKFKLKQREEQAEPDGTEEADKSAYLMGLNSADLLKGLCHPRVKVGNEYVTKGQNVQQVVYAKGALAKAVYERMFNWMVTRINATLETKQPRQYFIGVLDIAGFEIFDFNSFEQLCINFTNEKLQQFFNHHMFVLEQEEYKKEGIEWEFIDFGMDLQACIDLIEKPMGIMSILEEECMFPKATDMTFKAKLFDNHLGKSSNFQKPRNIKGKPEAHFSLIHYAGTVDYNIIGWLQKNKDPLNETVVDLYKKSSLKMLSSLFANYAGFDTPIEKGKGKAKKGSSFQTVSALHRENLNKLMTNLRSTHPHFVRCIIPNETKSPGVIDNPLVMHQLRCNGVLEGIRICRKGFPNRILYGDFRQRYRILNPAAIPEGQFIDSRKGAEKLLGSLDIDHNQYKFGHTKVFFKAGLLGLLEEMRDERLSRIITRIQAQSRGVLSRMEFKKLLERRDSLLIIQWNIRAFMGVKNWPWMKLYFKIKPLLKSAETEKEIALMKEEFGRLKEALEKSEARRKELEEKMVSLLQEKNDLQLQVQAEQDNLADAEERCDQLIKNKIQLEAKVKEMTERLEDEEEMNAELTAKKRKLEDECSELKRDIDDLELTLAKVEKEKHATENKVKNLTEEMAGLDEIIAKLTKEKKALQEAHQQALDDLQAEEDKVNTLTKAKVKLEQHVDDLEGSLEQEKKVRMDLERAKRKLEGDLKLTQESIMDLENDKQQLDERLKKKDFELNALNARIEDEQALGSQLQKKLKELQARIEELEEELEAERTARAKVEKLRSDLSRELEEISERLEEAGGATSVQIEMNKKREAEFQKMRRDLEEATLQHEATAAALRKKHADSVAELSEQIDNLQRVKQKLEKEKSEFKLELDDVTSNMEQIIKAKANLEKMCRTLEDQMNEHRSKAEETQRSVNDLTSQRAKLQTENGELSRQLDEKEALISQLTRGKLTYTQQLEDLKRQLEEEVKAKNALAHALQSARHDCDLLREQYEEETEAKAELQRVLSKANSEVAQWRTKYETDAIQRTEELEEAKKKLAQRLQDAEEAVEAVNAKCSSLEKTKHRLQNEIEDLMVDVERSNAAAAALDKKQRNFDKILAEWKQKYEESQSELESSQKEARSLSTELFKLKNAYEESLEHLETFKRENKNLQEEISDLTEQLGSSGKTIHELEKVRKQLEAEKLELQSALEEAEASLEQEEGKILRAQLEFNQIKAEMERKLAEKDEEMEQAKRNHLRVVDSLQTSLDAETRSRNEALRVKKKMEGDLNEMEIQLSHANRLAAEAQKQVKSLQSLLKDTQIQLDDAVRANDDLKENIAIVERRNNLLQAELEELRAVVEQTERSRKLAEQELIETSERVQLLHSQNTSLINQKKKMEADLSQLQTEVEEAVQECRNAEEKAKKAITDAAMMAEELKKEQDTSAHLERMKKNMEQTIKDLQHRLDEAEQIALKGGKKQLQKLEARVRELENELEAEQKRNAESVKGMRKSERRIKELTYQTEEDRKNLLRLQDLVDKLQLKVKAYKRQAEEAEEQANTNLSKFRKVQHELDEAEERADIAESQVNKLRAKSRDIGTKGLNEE
T1 sequence (P85100 whole entry partner): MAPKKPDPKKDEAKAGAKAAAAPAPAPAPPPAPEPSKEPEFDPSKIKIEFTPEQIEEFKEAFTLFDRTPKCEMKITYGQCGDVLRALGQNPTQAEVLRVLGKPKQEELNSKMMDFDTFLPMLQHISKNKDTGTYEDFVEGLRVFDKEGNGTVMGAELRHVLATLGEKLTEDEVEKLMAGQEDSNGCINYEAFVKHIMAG
T1 sequence (Q3SZE5 whole entry partner): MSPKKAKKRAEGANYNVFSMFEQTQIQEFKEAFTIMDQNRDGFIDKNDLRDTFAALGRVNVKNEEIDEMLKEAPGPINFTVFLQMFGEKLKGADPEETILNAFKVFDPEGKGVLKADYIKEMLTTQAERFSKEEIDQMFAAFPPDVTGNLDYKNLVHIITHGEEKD

Row | SMILES | AUC(0-t) [1] [ng·h/mL] | Cmax [1] [ng/mL] | pIC50 [2, 4] | pIC50 [2, 5] | inhibition at 100 µM (cardiac myosin SII) [%] | inhibition at 100 µM (smooth muscle myosin S1) [%] | half-life [1] [h] | Kp at 6 h [3] | Kp at 24 h [3] | IC50 (CYP1A2) [µM] | IC50 (CYP3A4) [µM] | IC50 (CYP2C9) [µM] | IC50 (CYP2C19) [µM] | IC50 (CYP2D6) [µM]
1 | O=c1ccc(-c2cnc(OCC(F)(F)F)nc2)nn1Cc1ccc2c(c1)CC1CC21 (single isomer, unassigned) [Compound 162] | 6180 | 688 | > 5.60 | 6.10 | 13 | 16 | – | – | – | – | – | – | – | –
2 | O=C1CCc2ccc(Cn3nc(-c4cnc(OCC5CC5)nc4)ccc3=O)cc21 [Compound 129] | – | – | > 5.60 | 6.70 | 22 | -2 | 41.9 | 146 | 178 | – | – | – | – | –
3 | O=C1CCc2c(Cl)cc(Cn3nc(-c4cnc(O[C@@H]5CCOC5)nc4)ccc3=O)cc21 [Compound 171] | – | – | > 5.60 | 6.05 | – | – | – | 90.1 | 161 | > 30 | > 30 | > 30 | > 30 | > 30
4 | Cn1cc(Oc2ncc(-c3ccc(=O)n(Cc4ccc5c(c4)CCC5)n3)cn2)cn1 [Compound 128] | 8320 | 1090 | 4.70 to 5.60 | – | -10 | -2 | – | – | – | – | – | – | – | –
5 | O=C1CCc2c(F)cc(Cn3nc(-c4cnc(OCC(F)(F)F)nc4)ccc3=O)cc21 [Compound 153] | – | – | > 5.60 | 6.30 | – | -12 | – | 73.3 | 96.7 | > 30 | > 30 | > 30 | > 30 | > 30
6 | O=c1ccc(-c2cnc(OCC(F)(F)F)nc2)nn1Cc1ccc2c(c1)C1CC1C2 (single isomer, unassigned) [Compound 160] | 8170 | 1380 | > 5.60 | – | 8 | 3 | – | – | – | – | – | – | – | –
7 | O=C1Cc2cc(Cn3nc(-c4cnc(OCC(F)(F)F)nc4)ccc3=O)ccc21 [Compound 72] | – | – | > 5.60 | 6.25 | – | 23.6 | – | – | – | > 30 | > 30 | > 30 | > 30 | > 30
8 | O=C1CCc2c(Cl)cc(Cn3nc(-c4cnc(O[C@H]5CCOC5)nc4)ccc3=O)cc21 [Compound 172] | – | – | > 5.60 | 6.00 | – | – | – | 67 | 129 | > 30 | > 30 | > 30 | > 30 | > 30
9 | O=C1CCc2ccc(Cn3nc(-c4cnc(OCC5(F)CC5)nc4)ccc3=O)cc21 [Compound 135] | – | – | > 5.60 | 6.52 | – | 8 | 66.8 | 133 | 165 | – | – | – | – | –
10 | O=C1CCc2c(F)cc(Cn3nc(-c4cnc(O[C@@H]5CCOC5)nc4)ccc3=O)cc21 [Compound 163] | – | – | > 5.60 | – | – | 14 | – | – | – | > 30 | > 30 | > 30 | > 30 | > 30
